Experimental data taken from patent US20260200946A1, “KRAS(G12V) INHIBITORS” (Ranok Therapeutics (Hangzhou) Co. Ltd., priority 2022, published 2026).

biological target: T1, KRAS(G12V)/SOS1 (Homo sapiens, UniProt P01116, G12V); experiment: KRAS(G12V)/SOS1 homogeneous time-resolved fluorescence (HTRF) assay; format: binding; settings: absence of GTP; 4° C., 3 hours; read-out: HTRF of KRASG12V-SOS1
T1 construct: purchased Cisbio 63ADK000CB18PEH
Procedure: Binding of test compounds to KRAS(G12V) target protein, which in turn blocks KRAS(G12V) interaction with the SOS1 protein, was measured in the absences of GTP by homogeneous time-resolved fluorescence using the KRAS-G12V/SOS1 Binding Assay Kit (Cisbio, 63ADK000CB18PEH), following the manufacturer's instructions, except as noted. 3-fold serial dilutions of each test compound were prepared ranging from 20 µM to 1.02 nM. The test compound was mixed and incubated with reaction components, incubated in a sealed plate at 4° C. for 3 hours and fluorescence was measured using a PerkinElmer Envision plate reader. The KRAS(G12V)-SOS1 IC50 values (the concentration of 50% of the maximal inhibition) were calculated using GraphPad Prism 8.0 software.

T1 sequence (P01116 1-188 isoform P01116-2 G12V): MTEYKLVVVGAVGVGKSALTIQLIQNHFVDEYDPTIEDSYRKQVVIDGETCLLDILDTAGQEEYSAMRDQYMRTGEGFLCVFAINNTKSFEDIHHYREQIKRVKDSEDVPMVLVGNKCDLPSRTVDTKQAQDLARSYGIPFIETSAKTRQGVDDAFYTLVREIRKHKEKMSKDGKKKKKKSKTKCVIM

Structure (SMILES) | IC50 [nM]
C#Cc1c(F)ccc2cc(O)cc(-c3ncc4c(N5CC6CCC(C5)N6)nc(OCC5(CN6CCC(F)CC6)CC5)nc4c3F)c12 [Example 1, 4-(4-(3,8-diazabicyclo[3.2.1]octan-3-yl)-8-fluoro-2-((1-((4-fluoropiperidin-1-yl)methyl)cyclopropyl)methoxy)pyrido[4,3-d]pyrimidin-7-yl)-5-ethynyl-6-fluoronaphthalen-2-ol] | 100 to 1000
C#Cc1c(F)ccc2cc(O)cc(-c3ncc4c(N5CC6CCC(C5)N6C(=O)CC(C)C)nc(OCC5(CN6CCC(F)CC6)CC5)nc4c3F)c12 [Example 4] | 100 to 1000
C#Cc1c(F)ccc2cc(O)cc(-c3ncc4c(N5CC6CCC(C5)N6C(=O)NC5CCOC5)nc(OCC5(CN6CCC(F)CC6)CC5)nc4c3F)c12 (centres unmarked) [Example 9] | < 100
C#Cc1c(F)ccc2cc(O)cc(-c3nc(OC)c4c(N5CC6CCC(C5)N6C(=O)CC(F)(F)F)nc(OCC5(CN6CCC(F)CC6)CC5)nc4c3F)c12 [Example 20] | < 100
C#Cc1c(F)ccc2cc(O)cc(-c3ncc4c(N5CC6CCC(C5)N6C(=O)NCC(C)(C)O)nc(OCC5(CN6CCC(F)CC6)CC5)nc4c3F)c12 [Example 53] | < 100
C#CCC(=O)N1C2CCC1CN(c1nc(OCC3(CN4CCC(F)CC4)CC3)nc3c(F)c(-c4cc(O)cc5ccc(F)c(C#C)c45)ncc13)C2 [Example 54] | < 100
C#Cc1c(F)ccc2cc(O)cc(-c3nc(OC)c4c(N5CC6CCC(C5)N6C(=O)NC5CCCC5)nc(OCC5(CN6CCC(F)CC6)CC5)nc4c3F)c12 [Example 55] | < 100
C#Cc1c(F)ccc2cc(O)cc(-c3ncc4c(N5CC6CCC(C5)N6S(=O)(=O)NCCN(C)C)nc(OCC5(CN6CCC(F)CC6)CC5)nc4c3F)c12 [Example 56] | < 100

test system: NCIH727 cells; experiment: Cancer cell line proliferation (CellTiter-Glo), NCI-H727; format: cell-based; settings: Homo sapiens, 72 h, NCIH727 lung carcinoid, heterozygous G12V
Procedure: Cell lines were cultured essentially according to ATCC recommendations.
SW620 and NCIH727 cells were plated in 384-well tissue culture plates at 1,000 cells/well and incubated at 37° C./5% CO2 for 72 hr in 40 μl of media. […] Each cell line was then treated with test compounds at various concentrations with a final concentration of 0.5% DMSO/well, and then incubated at 37° C./5% CO2 for 72 hr. 40 μl of CellTiter-Glo® Reagent (Promega Corporation, Madison, WI) was added to each well and processed according manufacturer's protocol. Results were analyzed and IC50 values were calculated in GraphPad 8.0 software.

Structure (SMILES) | EC50 [nM]
C#Cc1c(F)ccc2cc(O)cc(-c3ncc4c(N5CC6CCC(C5)N6C(=O)CC(C)C)nc(OCC5(CN6CCC(F)CC6)CC5)nc4c3F)c12 [Example 4] | > 1000
C#Cc1c(F)ccc2cc(O)cc(-c3ncc4c(N5CC6CCC(C5)N6C(=O)NC5CCOC5)nc(OCC5(CN6CCC(F)CC6)CC5)nc4c3F)c12 (centres unmarked) [Example 9] | > 1000
C#Cc1c(F)ccc2cc(O)cc(-c3nc(OC)c4c(N5CC6CCC(C5)C6C(=O)NCC(F)(F)F)nc(OCC5(CN6CC7CC7C6)CC5)nc4c3F)c12 (centres unmarked) [Example 170] | > 1000
C#Cc1c(F)ccc2cc(N)cc(-c3nc(OC)c4c(N5CC6CCC(C5)N6C(=O)C[C@@H](O)C(F)(F)F)nc(OCC5(CN6CC7CC7C6)CC5)nc4c3F)c12 (some centres unmarked) [Example 171] | 100 to 1000
Cc1cc(N)nc(-c2c(Cl)cc3c(N4CC5CCC(C4)N5C(=O)CCOC(F)(F)F)nc(OCC4(CN5CC6CC6C5)CC4)nc3c2F)c1C(F)(F)F (centres unmarked) [Example 174] | > 1000
C#Cc1c(F)ccc2cc(O)cc(-c3nc(OC)c4c(N5CC6CCC(C5)N6C(=O)N5CC(OC(F)(F)F)C5)nc(OCC5(CN6CC7CC7C6)CC5)nc4c3F)c12 (centres unmarked) [Example 175] | 100 to 1000
C#Cc1c(F)ccc2cc(O)cc(-c3nc(OC)c4c(N5CC6CCC(C5)N6C(=O)C[C@@H](C)C#N)nc(OCC5(CN6CC7CC7C6)CC5)nc4c3F)c12 (some centres unmarked) [Example 177] | < 100
C#Cc1c(F)ccc2cc(OC(=O)C(C)C)cc(-c3nc(OC)c4c(N5CC6CCC(C5)N6C(=O)C(C#N)CC#N)nc(OCC5(CN6CC7CC7C6)CC5)nc4c3F)c12 (centres unmarked) [Example 179] | 100 to 1000
C#Cc1c(F)ccc2cc(O)cc(-c3nc(OC)c4c(N5CC6CCC(C5)N6C(=O)C[C@H](O)C(F)(F)F)nc(OCC5(CN6CC7CC7C6)CC5)nc4c3F)c12 (some centres unmarked) [Example 180] | 100 to 1000
C#Cc1c(F)ccc2cc(O)cc(-c3nc(OC)c4c(N5CC6CCC(C5)N6C(=O)CC(C)C(F)(F)F)nc(OCC5(CN6CC7CC7C6)CC5)nc4c3F)c12 (centres unmarked) [Example 181] | 100 to 1000
C#Cc1c(F)ccc2cc(O)cc(-c3nc(OC)c4c(N5CC6CCC(C5)N6C(=O)NNC)nc(OCC5(CN6CC7CC7C6)CC5)nc4c3F)c12 (centres unmarked) [Example 182] | 100 to 1000
C#Cc1c(F)ccc2cc(O)cc(-c3nc(OC)c4c(N5CC6CCC(C5)N6C(=O)NC56CC(F)(C5)C6)nc(OCC5(CN6CC7CC7C6)CC5)nc4c3F)c12 (centres unmarked) [Example 183] | < 100
C#Cc1c(F)ccc2cc(O)cc(-c3nc(OC)c4c(N5CC6CCC(C5)N6C(=O)NC56CC(C(F)(F)F)(C5)C6)nc(OCC5(CN6CC7CC7C6)CC5)nc4c3F)c12 (centres unmarked) [Example 184] | 100 to 1000
C#Cc1c(F)ccc2cc(O)cc(-c3nc(OC)c4c(N5CC6CCC(C5)N6C(=O)C56CC(F)(C5)C6)nc(OCC5(CN6CC7CC7C6)CC5)nc4c3F)c12 (centres unmarked) [Example 185] | 100 to 1000
C#Cc1c(F)ccc2cc(O)cc(-c3nc(OC)c4c(N5CC6CCC(C5)N6C(=O)C(C#N)CC5CC5)nc(OCC5(CN6CC7CC7C6)CC5)nc4c3F)c12 (centres unmarked) [Example 186] | > 1000
C#Cc1c(F)ccc2cc(O)cc(-c3nc(OC)c4c(N5CC6CCC(C5)N6C(=O)NCC(O)C(F)(F)F)nc(OCC5(CN6CC7CC7C6)CC5)nc4c3F)c12 (centres unmarked) [Example 187] | 100 to 1000
C#Cc1c(F)ccc2cc(O)cc(-c3nc(OC)c4c(N5CC6CCC(C5)N6C(=O)N[C@H](C)C(F)(F)F)nc(OCC5(CN6CC7CC7C6)CC5)nc4c3F)c12 (some centres unmarked) [Example 188] | 100 to 1000
C#Cc1c(F)ccc2cc(O)cc(-c3nc(OC)c4c(N5CC6CCC(C5)N6C(=O)NC(C#N)C(N)=O)nc(OCC5(CN6CC7CC7C6)CC5)nc4c3F)c12 (centres unmarked) [Example 189] | > 1000
C#Cc1c(F)ccc2cc(O)cc(-c3nc(OC)c4c(N5CC6CCC(C5)N6C(=O)N[C@H]5C[C@@H](C#N)C5)nc(OCC5(CN6CC7CC7C6)CC5)nc4c3F)c12 (some centres unmarked) [Example 190] | 100 to 1000
C#Cc1c(F)ccc2cc(O)cc(-c3nc(OC)c4c(N5CC6CCC(C5)N6C(=O)N[C@H]5C[C@H](C#N)C5)nc(OCC5(CN6CC7CC7C6)CC5)nc4c3F)c12 (some centres unmarked) [Example 191] | 100 to 1000
C#Cc1c(F)ccc2cc(O)cc(-c3nc(OC)c4c(N5CC6CCC(C5)N6C(=O)NC(C#N)C5CC5)nc(OCC5(CN6CC7CC7C6)CC5)nc4c3F)c12 (centres unmarked) [Example 192] | 100 to 1000
C#Cc1c(F)ccc2cc(O)cc(-c3nc(OC)c4c(N5CC6CCC(C5)N6C(=O)CC(C)(O)C(F)(F)F)nc(OCC5(CN6CC7CC7C6)CC5)nc4c3F)c12 (centres unmarked) [Example 193] | 100 to 1000
C#Cc1c(F)ccc2cc(O)cc(-c3nc(OC)c4c(N5CC6CCC(C5)N6C(=O)NC56CC(C#N)(C5)C6)nc(OCC5(CN6CC7CC7C6)CC5)nc4c3F)c12 (centres unmarked) [Example 194] | 100 to 1000
C#Cc1c(F)ccc2cc(O)cc(-c3nc(OC)c4c(N5CC6CCC(C5)N6C(=O)N[C@@H]5CCC[C@@H]5C#N)nc(OCC5(CN6CC7CC7C6)CC5)nc4c3F)c12 (some centres unmarked) [Example 195] | 100 to 1000
C#Cc1c(F)ccc2cc(O)cc(-c3nc(OC)c4c(N5CC6CCC(C5)N6C(=O)NC5(C#N)COC5)nc(OCC5(CN6CC7CC7C6)CC5)nc4c3F)c12 (centres unmarked) [Example 196] | 100 to 1000
C#Cc1c(F)ccc2cc(O)cc(-c3nc(OC)c4c(N5CC6CCC(C5)N6C(=O)NC5(C#N)CCC5)nc(OCC5(CN6CC7CC7C6)CC5)nc4c3F)c12 (centres unmarked) [Example 197] | < 100
C#Cc1c(F)ccc2cc(O)cc(-c3nc(OC)c4c(N5CC6CCC(C5)N6C(=O)NC56CC(C5)C6)nc(OCC5(CN6CC7CC7C6)CC5)nc4c3F)c12 (centres unmarked) [Example 198] | < 100
C#Cc1c(F)ccc2cc(O)cc(-c3nc(OC)c4c(N5CC6CCC(C5)N6C(=O)NC5COC5)nc(OCC5(CN6CC7CC7C6)CC5)nc4c3F)c12 (centres unmarked) [Example 199] | < 100
C#Cc1c(F)ccc2cc(O)cc(-c3nc(OC)c4c(N5CC6CCC(C5)N6C(=O)N5CC(F)C5)nc(OCC5(CN6CC7CC7C6)CC5)nc4c3F)c12 (centres unmarked) [Example 200] | < 100
C#Cc1c(F)ccc2cc(O)cc(-c3nc(OC)c4c(N5CC6CCC(C5)N6C(=O)N5CC(C(F)F)C5)nc(OCC5(CN6CC7CC7C6)CC5)nc4c3F)c12 (centres unmarked) [Example 201] | 100 to 1000
